One block for each molecule: values may come before it. No end group written: not given here. *: point of attachment. FITC = O=C1OC2(c3ccc(O)cc3Oc3cc(O)ccc32)c2ccc(NC(=S)*)cc21
Experiments:
[1] = system: cancer cell line that is known to have AFP receptors; assay: Binding of FITC labelled peptide to cancer cells; type: cell-based; conditions: FITC at the N terminal; fluorescence; qualitative
[2] = system: MCF-7 cells (human breast cancer cell line); assay: Uptake of FITC labelled peptide into MCF-7 cells; type: cell-based; conditions: FITC fluorescence; qualitative
Description: FIGS. 10A and B show the results of this experiment. […] This experiment provides evidence that the peptides according to the present invention provide for intracellular delivery of bioactive agents to the interior of cells expressing AFPr, particularly cancer cells.

[3] = system: alpha-fetoprotein receptor present in MCF-7 cell extracts; assay: Competitive ELISA with biotin labeled AFP on MCF-7 cell extract; type: binding, human; conditions: for inhibition (competition with AFP-biotin): constant AFP-biotin 0.5 μg/ml, plate coated with MCF-7 extract; for competition with biotin labeled AFP for the AFP receptor: qualitative, biotin labeled AFP 0.5 ug/ml
Description: To see if the enzymatic digests were still biologically active, the enzymatic digests were used in a competitive based ELISA with whole AFP molecule labeled with biotin. The ability of the enzymatic digest dilutions to compete for the alpha-fetoprotein receptor present in MCF-7 cell extracts was determined using a constant 0.5 ug/ml of biotin labeled AFP. […] This fragment was run on a gradient tricine gel, transferred to a PVDF membrane and sent for N terminal sequencing. Results gave the amino acid (AA) sequence V-N-P-G . . . corresponding to AA 493 to 496 of Human AFP as published in Uniprot Data base (FIG. 2).
A plate can be coated with an extract of a cancer cell line known to have AFP receptors (for example, MCF-7). The plate is coated at 100 ug/ml total protein concentration and the peptide to be tested and AFP biotin is mixed with an initial peptide concentration of 250 μg/ml and subsequent half dilutions made. […] (FIG. 3). This assay was repeated with subsequent peptides synthesized in order to determine the smallest amino acid chain that would compete along with other peptides not in this region of the AFP molecule as well as from a different species.

[4] = target: alpha-fetoprotein receptor (AFP receptor) (human); assay: competition assay, plate coated with MCF-7 extract, AFP-biotin constant at 0.5 µg/ml

Molecule: FITC labeled Fragment 4: Fragment 4 synthesized with FITC at the N terminal ({FITC}-LQTMKQEFLIN)
binding to cancer cells [1]: demonstrated binding
uptake into MCF-7 human breast cancer cells [2]: uptake

Molecule: HKDLCQAQGVALQTMKQEFLIN [Fragment 3, amino acids 534-555 of human AFP]
inhibition (competition with AFP-biotin) ([3]; peptide 7.8 μg/ml): 50%
inhibition (competition with AFP-biotin) ([3]; peptide 250 μg/ml): 85%
competition with biotin labeled AFP for the AFP receptor [3]: found to compete

Molecule: KQEFLIN [amino acids 549-555 of human AFP]
competition with biotin labeled AFP for the AFP receptor [3]: found to compete

% inhibition at 7.8 µg/ml [4]: 50%
% inhibition at 250 µg/ml [4]: 85%
B1: Fragment 3, … (peptide)
peptide: HKDLCQAQGVALQTMKQEFLIN

Reference: patent US20120270238A1, “Peptides That Bind the Alpha-Fetoprotein (AFP) Receptor and Uses Thereof” (priority 2009, published 2012)
